The NIST ThermoML archive (doi:10.1016/j.jct.2012.06.018)

Conditions: for surface tension liquid-gas: Ring tensiometer; for viscosity / mass density: 101.33 kPa, Liquid; for viscosity: Capillary tube (Ostwald / Ubbelohde) method; for mass density: Pycnometric method

CCCC[n+]1cccc(C)c1.F[B-](F)(F)F [1-butyl-3-methylpyridinium tetrafluoroborate]
Conditions	mass density [kg/m3]	surface tension liquid-gas [mN/m]	viscosity [mPa·s]
293.15 K	1189	47.5	226.15
298.15 K	1177	47.1	169.51
303.15 K	1172	45.8	129.06
308.15 K	1168	45.6	97.03
313.15 K	1166	45.3	73.35
318.15 K	1163	44.9	59.05
323.15 K	1160	44.4	46.59

CCCC[n+]1ccccc1.O=S(=O)([N-]S(=O)(=O)C(F)(F)F)C(F)(F)F [1-butylpyridinium bis[(trifluoromethyl)sulfonyl]imide]
Conditions	mass density [kg/m3]	surface tension liquid-gas [mN/m]	viscosity [mPa·s]
293.15 K	1462	35	75.61
298.15 K	1456	34.8	60.55
303.15 K	1445	34.5	48.11
308.15 K	1441	34.4	38.08
313.15 K	1439	34.3	32.37
318.15 K	1437	34.2	27.62
323.15 K	1433	34.1	22.75

CCCC[n+]1cccc(C)c1.O=S(=O)([N-]S(=O)(=O)C(F)(F)F)C(F)(F)F
Conditions	mass density [kg/m3]	surface tension liquid-gas [mN/m]	viscosity [mPa·s]
293.15 K	1429	35.8	81.71
298.15 K	1425	35.5	64.73
303.15 K	1423	35.3	51.42
308.15 K	1421	35.1	41.73
313.15 K	1420	34.8	33.98
318.15 K	1419	34.6	29.05
323.15 K	1416	34.4	25.68

CCCC[n+]1ccccc1C.O=S(=O)([N-]S(=O)(=O)C(F)(F)F)C(F)(F)F
Conditions	mass density [kg/m3]	surface tension liquid-gas [mN/m]	viscosity [mPa·s]
293.15 K	1482	36.5	143.91
298.15 K	1476	36.3	95.73
303.15 K	1459	36.1	72.05
308.15 K	1450	35.9	56.95
313.15 K	1446	35.5	45.83
318.15 K	1440	35.2	37.39
323.15 K	1435	35	29.48

CCCCCC[n+]1ccccc1.O=S(=O)([N-]S(=O)(=O)C(F)(F)F)C(F)(F)F [1-hexylpyridinium bis(trifluromethylsulfonyl)imide]
Conditions	mass density [kg/m3]	surface tension liquid-gas [mN/m]	viscosity [mPa·s]
293.15 K	1386	34.2	275.12
298.15 K	1382	33.9	245.33
303.15 K	1379	33.5	201.82
308.15 K	1373	33.3	153.24
313.15 K	1368	33	131.32
318.15 K	1368	32.8	105.99
323.15 K	1362	32.6	83.66

CCCC[n+]1cccc(C)c1.O=S(=O)([O-])C(F)(F)F [1-butyl-3-methylpyridinium trifluoromethanesulfonate]
Conditions	mass density [kg/m3]	surface tension liquid-gas [mN/m]	viscosity [mPa·s]
293.15 K	1306	38.6	142.15
298.15 K	1297	38.2	126.57
303.15 K	1291	37.5	101.27
308.15 K	1285	37.1	78.04
313.15 K	1275	36.9	60.98
318.15 K	1270	36.6	48.9
323.15 K	1251	36.2	37.94

CC[n+]1ccccc1.O=S(=O)([N-]S(=O)(=O)C(F)(F)F)C(F)(F)F [1-ethylpyridinium bis[(trifluoromethyl)sulfonyl]imide]
Conditions	mass density [kg/m3]	surface tension liquid-gas [mN/m]	viscosity [mPa·s]
293.15 K	1534	35.6	47.43
298.15 K	1532	35.5	39.76
303.15 K	1530	35.4	33.31
308.15 K	1528	35.3	27.8
313.15 K	1520	35.2	23.39
318.15 K	1519	35.2	20.2
323.15 K	1515	35.1	17.61

CCCC[n+]1ccc(C)cc1.O=S(=O)([N-]S(=O)(=O)C(F)(F)F)C(F)(F)F
Conditions	mass density [kg/m3]	surface tension liquid-gas [mN/m]	viscosity [mPa·s]
293.15 K	1419	35.4	65.26
298.15 K	1413	35	54.41
303.15 K	1412	34.7	44.42
308.15 K	1411	34.5	36.12
313.15 K	1410	34.2	29.81
318.15 K	1409	34	25.18
323.15 K	1405	33.8	20.23
